From patent US12613249B2 (THE ROYAL INSTITUTION FOR THE ADVANCEMENT OF LEARNING / …, priority 2019, dated 2026)
Where “and” joins values, the source holds several entries; their conditions need not be identical. Identical values can stand only once. Square brackets hold non-standard residues; d marks the D form. Peptide text beside a SMILES is read from it.

Tests used:
[1] = Brain homogenate concentrations after single oral dose, LC-MS; assay type: in vivo, C57BL/6 mice; conditions: for maximum brain concentration / peak brain concentration: brain homogenate; for maximum brain concentration / time of maximum brain concentration: female mice
Protocol: (§1) An internal standard (IS) for the reliable quantification of D-AIP in biological matrices was prepared by dimethylation to produce an analog of D-AIP by using a protocol previously described (Boersema et al., 2009, Nat Protoc, 4:484-494). Standard solutions (1 mg/mL) each of D-AIP and IS were prepared in deionized water and 100% methanol respectively. 100 μL of IS working solution was prepared at 50 ng/ml added to 25 μL of the sample (plasma or brain homogenate). The sample was vortexed for approximately 5 s and let stand for 10 min, then centrifuged at 16,000 g for 10 min. The supernatant was transferred to a 13×100 polypropylene tube and evaporated to dryness at 50° C. under gentle stream of nitrogen. The dry extract was re-suspended with 40 μL of 0.1% (v/v) formic acid (Sigma Aldrich, St-Louis, MO, USA) in deionized water and transferred to an injection vial for analysis.
(§2) Thermo Scientific TSQ Quantiva Triple Quadrupole mass spectrometer (San Jose, CA, USA) was interfaced with the Thermo Scientific UltiMate 3000 XRS UHPLC system (San Jose, CA, USA) using a pneumatic assisted heated electrospray ion source. Data acquisition and analysis were performed using Xcalibur 4.0 (San Jose, CA, USA).
(§3) […]radient elution was used with a Thermo Scientific BioBasic-8 column (100×2 mm I.D. 5 μm) operating at 40° C. The initial mobile phase condition consisted of 0.1% formic acid in acetonitrile and 0.1% formic acid in deionized water at a ratio of 5:95, respectively and this ration was maintained for 1 min. A linear gradient was applied from 1 to 5 min up to a ratio of 50:50 and maintained for 1 min. At 6.1 min, the mobile phase composition was reverted to 5:95 and the column was allowed to equilibrate for 7.9 min for a total run time of 14 min. The D-AIP and IS eluted at 4.7 and 4.8 min respectively at a fixed flow rate of 0.2 mL/min. The eluent was diverted to waste for the first minute and last six minutes. Extracted sample (5 μL) was injected and the acquisition time was set to 14 min.
(§4) The mass spectrometer was interfaced with ultra-high-performance liquid chromatography (UHPLC) system using a pneumatic assisted heated electrospray ion source with detection in positive ion mode using […] (MRM). For proper optimization of the mass spectrometer, standard solutions of D-AIP and IS were infused. The obtained source parameters were 50 and 15 arbitrary units respectively while using nitrogen for the sheath and auxiliary gases. The HESI electrode was set to 3500 V, capillary and vaporizer temperature were both set to 300° C. respectively. The MS/MS parameters were optimized using the doubly charged species. Argon was used as collision gas at a pressure of 2.5 mTorr. The precursor-ion reaction for D-AIP were set to 471.4→[591.8+648.3] and for the IS the MRM transitions were set to 499.4→[425.8+468.8+476.8]
(§5) Standard solution of D-AIP (1 mg/mL) was diluted in various volumes of deionized water to obtain series of standard working solutions. Calibration standards were prepared by fortifying the mouse plasma and mouse brain homogenate with the standard working solutions at 10% (v/v) to enable analytical concentration range of 1.00 to 1000 ng/ml. The method is linear using a linear regression weighted 1/x analysis, a value of R^2≥0.9979 was obtained for plasma and R^2≥0.9991 for brain homogenate. Samples were injected in duplicate with the calculated in each case and concentrations were processed from the equation obtained from the respective calibration curves using Xcalibur 4.0 software.
(§6) Animal care and all animal experiments were undertaken with federal guidelines and approval of the Institutional Animal Ethical Committee of McGill University, Montreal, Canada (Protocol Application Number: 2017-7880) and adequate measures were taken to minimize pain or discomfort. […]

[2] = Plasma pharmacokinetics after single oral dose, LC-MS; assay type: in vivo, C57BL/6 mice; conditions: for CL/F (apparent total clearance from plasma) / λz (elimination rate constant): plasma
Protocol: as §1, §2, §3, §4, §5, §6

[3] = Ex-vivo stability in mouse liver S9-fraction, MALDI-TOF MS; assay type: in vitro ADME, C57BL/6 mice
Protocol: The stability of D-AIP in mouse plasma, blood and liver S-9 fraction was investigated to ascertain the metabolic resistance towards proteases and enzymatic activities in these matrices. Whole mouse blood obtained from healthy C57BL/6 male and female mice (6 mice in total) were collected in lithium heparin containing tubes, pooled and stored at 4° C. prior to its use. A fraction of the pooled blood was immediately centrifuged at 1500×g for 10 min at 4° C. to obtain the plasma. The whole blood and plasma samples were spiked with PBS (as control) or AIP (L-AIP, D-AIP or sD-AIP respectively) to make a final concentration of 1 ug/mL and incubated at 37° C. Initial samples were withdrawn to represent t=0 prior to incubation and others were withdrawn 1, 3 and 24 h respectively. Fresh mouse liver also obtained from C57BL/6 male and female mice were pooled, homogenized in 0.15 M Potassium chloride (KCl) and centrifuged at 9000×g. The supernatant represents liver homogenate (S-9) fraction which was mixed with other buffers to formulate the liver S-9 mix as previously described (Kolrep et al., 2017, Toxicol In Vitro, 42:161-170). Liver S-9 mix were spiked with AIP to make a final concentration of 1 μg/mL (L-AIP, D-AIP or sD-AIP respectively) and incubated at 37° C. Just after the addition of NADPH, 100 μL aliquot which represents t=0 samples were withdrawn and others were sampled accordingly at predetermined time points. 400 μL of ice cold MeOH was added to the spiked plasma, blood or liver S-9 fraction respectively, to precipitate the microsomal protein. The samples were then vigorously mixed for 30 s to facilitate extraction and centrifuged for 10 minutes at 13000 rpm, the supernatant was subjected to sample clean up by C18 ZipTip (EMD Millipore Corporation), the eluates were spotted with CHCA matrix on the ground steel MALDI-TOF target and analyzed with MALDI-TOF MS. Applying the t=0 peak area as 100% the intensities of the other time points were compared relatively for interpretation. […]

[4] = female C57BL/6 mice, single oral dose 10 mg/kg
[5] = female C57BL/6 mice, single oral dose 30 mg/kg
[6] = female C57BL/6 mice, single oral dose 100 mg/kg
[7] = male C57BL/6 mice, single oral dose 10 mg/kg
[8] = male C57BL/6 mice, single oral dose 100 mg/kg

Work on `C[C@H](O)[C@@H](NC(=O)CNC(=O)[C@H](N)CCCNC(=N)N)C(=O)N[C@H](Cc1ccccc1)C(=O)N[C@H](CCC(=O)O)C(=O)NCC(=O)N[C@H](CCCCN)C(=O)N[C@H](Cc1ccccc1)C(=O)O` [D-AIP] (H-[dR]G[dT][dF][dE]G[dK][dF]-OH; N-terminus and C-terminus assumed) yielded a tissue level at time at 4 h ([1]; C57BL/6, mouse, brain, male mice, highest dose (100 mg/kg oral), after 4 h, read-out: brain concentration during elimination) of 38.5 ng/g, a maximum brain concentration ([1]; single oral dose 10 mg/kg, at 4 h) of 28.91 ng/g and a maximum brain concentration ([1]; single oral dose 30 mg/kg, at 2 h) of 136.29 ng/g. For the same compound, the maximum brain concentration ([1]; single oral dose 100 mg/kg, at 2 h) was 707.95 ng/g, the peak brain concentration ([1]; male mice, single oral dose 10 mg/kg, at 4 h) was 133.15 ng/g and the peak brain concentration ([1]; male mice, single oral dose 30 mg/kg, at 2 h) was 262.00 ng/g. For the same compound, the peak brain concentration ([1]; male mice, single oral dose 100 mg/kg, at 0.5 h) was 509.24 ng/g, the “crossing of the BBB” value ([1]; female and male mice, single oral doses 10, 30, 100 mg/kg) was “crossed the BBB and reached the brain” and the “time of maximum brain concentration” value ([1]; single oral dose 10 mg/kg) was 4 h. The “time of maximum brain concentration” value ([1]; single oral dose 30 mg/kg) was 2 h, the “time of maximum brain concentration” value ([1]; single oral dose 100 mg/kg) was 2 h and the “time of peak brain concentration” value ([1]; male mice, single oral dose 10 mg/kg) was 4 h. For the same compound, the “time of peak brain concentration” value ([1]; male mice, single oral dose 30 mg/kg) was 2 h, the “time of peak brain concentration” value ([1]; male mice, single oral dose 100 mg/kg) was 0.5 h and the “dose relationship of AUC values” ([2]; 10, 30, 100 mg/kg oral, both sexes) was “linear in both sexes”. The plasma concentration decline ([2]; both sexes, all doses) was “reached baseline levels after 24 h”, the “CL/F (apparent total clearance from plasma)” value (from here on “CL/F”) [2, 4] was 30.04 L/h and the “λz (elimination rate constant)” value [2, 4] was 0.06 h⁻¹. The “CL/F” value [2, 5] was 42.02 L/h, the “λz (elimination rate constant)” value [2, 5] was 0.10 h⁻¹ and the “CL/F” value [2, 6] was 51.54 L/h. For the same compound, the “λz (elimination rate constant)” value [2, 6] was 0.21 h⁻¹, the “CL/F” value [2, 7] was 35.81 L/h and the “λz (elimination rate constant)” value [2, 7] was 0.15 h⁻¹. For the same compound, the “CL/F” value ([2]; male C57BL/6 mice, single oral dose 30 mg/kg) was 36.02 L/h, the “λz (elimination rate constant)” value ([2]; male C57BL/6 mice, single oral dose 30 mg/kg, 30 mg/kg) was 0.21 h^−1 and 0.21. h^−1 and the “CL/F” value [2, 8] was 48.79 L/h. The “λz (elimination rate constant)” value [2, 8] was 0.24 h⁻¹, the “stability, MALDI-TOF MS signal (941 m/z)” value ([3]; mouse liver S9-fraction, 37° C., 24 h) was “relatively stable over 24 h” and the “signal intensity compared to the unincubated sample” value ([3]; mouse liver S-9 fraction, after 24 h) was “three-fold decreased intensity”.
